Test results as given in paper PMC8144350, “Block of TREK and TRESK K2P channels by lamotrigine and two derivatives sipatrigine and CEN-092” (Biochemistry and Biophysics Reports, 2021).

What was measured:
Assay in all cases: whole-cell patch-clamp, tsA201 cells
Format in all cases: cell-based
TREK-1 [1] = target: T1, TREK-1 (Homo sapiens, UniProt O95069)
T1 construct: gene KCNK2; wild-type human TREK-1 (NP_055032.1)
T1 sequence (O95069 1-426): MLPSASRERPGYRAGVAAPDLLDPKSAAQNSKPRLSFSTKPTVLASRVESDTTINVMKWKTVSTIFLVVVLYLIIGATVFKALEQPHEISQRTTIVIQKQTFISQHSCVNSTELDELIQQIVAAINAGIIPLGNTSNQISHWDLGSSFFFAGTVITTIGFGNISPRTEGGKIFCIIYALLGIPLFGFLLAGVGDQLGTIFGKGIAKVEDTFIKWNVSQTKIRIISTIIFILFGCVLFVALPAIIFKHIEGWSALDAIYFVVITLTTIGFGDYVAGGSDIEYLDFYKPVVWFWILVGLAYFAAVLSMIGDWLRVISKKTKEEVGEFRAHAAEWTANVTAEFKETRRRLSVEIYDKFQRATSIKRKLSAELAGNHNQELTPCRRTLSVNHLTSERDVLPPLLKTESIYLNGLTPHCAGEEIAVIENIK

TRESK = target: T2, TRESK (Homo sapiens, UniProt Q7Z418)
T2 construct: gene KCNK18; wild-type human TRESK (NP_862823.1)
T2 sequence (Q7Z418 1-384): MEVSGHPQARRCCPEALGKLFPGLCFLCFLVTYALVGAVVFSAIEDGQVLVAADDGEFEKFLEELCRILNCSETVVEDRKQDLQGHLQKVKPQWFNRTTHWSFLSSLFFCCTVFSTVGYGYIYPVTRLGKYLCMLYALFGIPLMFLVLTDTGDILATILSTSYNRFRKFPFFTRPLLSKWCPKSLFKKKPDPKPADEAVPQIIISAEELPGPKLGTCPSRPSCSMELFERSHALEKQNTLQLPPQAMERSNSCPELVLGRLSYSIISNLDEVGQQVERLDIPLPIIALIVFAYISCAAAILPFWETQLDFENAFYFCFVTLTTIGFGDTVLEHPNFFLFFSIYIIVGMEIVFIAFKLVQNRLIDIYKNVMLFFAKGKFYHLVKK

TREK-1 [2] = target: T1, TREK-1; remark: listed apart in the source
TREK-2 = target: T3, TREK-2 (Homo sapiens, UniProt P57789)
T3 construct: gene KCNK10; wild-type human TREK-2 (NP_612190.1)
T3 sequence (P57789 1-538): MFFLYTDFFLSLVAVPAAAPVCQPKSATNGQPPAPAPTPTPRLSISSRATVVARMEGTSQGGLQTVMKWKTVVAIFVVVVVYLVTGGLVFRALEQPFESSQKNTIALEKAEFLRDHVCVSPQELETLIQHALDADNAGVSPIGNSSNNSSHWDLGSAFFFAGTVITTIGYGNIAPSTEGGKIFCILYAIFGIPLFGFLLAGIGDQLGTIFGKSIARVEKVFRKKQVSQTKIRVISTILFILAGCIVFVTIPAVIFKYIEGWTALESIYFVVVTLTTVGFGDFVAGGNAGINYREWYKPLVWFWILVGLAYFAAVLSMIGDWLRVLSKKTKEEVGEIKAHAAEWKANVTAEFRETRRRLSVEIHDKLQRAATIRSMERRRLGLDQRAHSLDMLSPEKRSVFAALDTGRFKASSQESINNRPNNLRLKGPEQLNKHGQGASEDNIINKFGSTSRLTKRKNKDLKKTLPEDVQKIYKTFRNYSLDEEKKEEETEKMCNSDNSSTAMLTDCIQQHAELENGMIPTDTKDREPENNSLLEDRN

SMILES | inhibition at 100 µM (TREK-1 [1]) [%] | inhibition at 100 µM (TRESK) [%] | EC50 (TREK-1 [2]) [µM] | inhibition at 100 µM (TREK-2) [%]
Nc1nnc(-c2cc(C(F)(F)F)cc(C(F)(F)F)c2)c(N)n1 [CEN-092, 3,5-diamino-6-(3,5-bistrifluoromethylphenyl)-1,2,4-triazine] | 21 | 43 |  | 
CN1CCN(c2ncc(-c3cc(Cl)cc(Cl)c3Cl)c(N)n2)CC1 [sipatrigine] |  |  | 16 | 85
Nc1nnc(-c2cccc(Cl)c2Cl)c(N)n1 [lamotrigine] | 30 | 35 |  | 14
